From patent publication US12344603B2 (Genentech, Inc., priority 2020, dated 2025)
Counter-ions that a name gives are not always drawn.

Target: IRE1α (Homo sapiens (Human), UniProt O75460, D688N)
Test: IRE1α TR-FRET competition binding assay (IRE1α HTRF)
Conditions: TR-FRET competition binding to kinase domain of IRE1α
In short: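 Competition of compounds against an Alexa fluor 647 ATP-site probe (2 nM final) for the His-tagged kinase domain (0.25 nM final), detected via 2 nM Eu anti-His antibody by TR-FRET, 665 and 615 nm emission. Protein–antibody premix 1 h, 4° C; reaction 1 h, room temperature, pH 7.5 HEPES buffer.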

Sequence of IRE1α (O75460 547-977 D688N): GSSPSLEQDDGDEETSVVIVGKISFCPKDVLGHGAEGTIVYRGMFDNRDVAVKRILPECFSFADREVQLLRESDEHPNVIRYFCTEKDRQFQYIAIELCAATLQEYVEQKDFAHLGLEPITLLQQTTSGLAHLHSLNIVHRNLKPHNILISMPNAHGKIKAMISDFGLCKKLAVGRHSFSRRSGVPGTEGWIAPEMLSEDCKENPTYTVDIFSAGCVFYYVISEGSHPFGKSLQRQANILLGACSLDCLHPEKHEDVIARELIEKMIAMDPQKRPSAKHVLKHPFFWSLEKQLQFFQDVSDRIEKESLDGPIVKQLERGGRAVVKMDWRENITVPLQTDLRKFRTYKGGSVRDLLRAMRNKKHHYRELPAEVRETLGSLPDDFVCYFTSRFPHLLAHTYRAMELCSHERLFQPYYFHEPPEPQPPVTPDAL

Compound | IC50 [nM]
CC(C)n1c(=O)c(-c2ccc(NS(=O)(=O)Cc3ccccc3F)nc2)cc2cnc(N[C@@H]3CNC[C@@H](F)C3)nc21 [Compound 93, 1-(2-Fluorophenyl)-N-(5-(2-(((3S,5S)-5-fluoropiperidin-3-yl)amino)-8-isopropyl-7-oxo-7,8-dihydropyrido[2,3-d]pyrimidin-6-yl)pyridin-2-yl)methanesulfonamide] | 0.24
CCCS(=O)(=O)Nc1c(F)ccc2c(-c3cc4cnc(N[C@H]5CCCNC5)nc4n(C)c3=O)cccc12 [Compound 8, (S)—N-(2-Fluoro-5-(8-methyl-7-oxo-2-(piperidin-3-ylamino)-7,8-dihydropyrido[2,3-d]pyrimidin-6-yl)naphthalen-1-yl)propane-1-sulfonamide] | 36
CC(C)CC(=O)Nc1c(F)cc(-c2cc3cnc(N[C@H]4CC[C@H](N(C)C)CC4)nc3n(C(C)C)c2=O)c(F)c1F [Compound 59, N-(4-(2-(((1r,4r)-4-(Dimethylamino)cyclohexyl)amino)-8-isopropyl-7-oxo-7,8-dihydropyrido[2,3-d]pyrimidin-6-yl)-2,3,6-trifluorophenyl)-3-methylbutanamide] | 3.2
CC[C@@H](C)n1c(=O)c(-c2ccc(NS(=O)(=O)CCC(F)(F)F)c(F)c2)cc2cnc(N[C@H]3CC[C@H](N(C)C)CC3)nc21 (single isomer, unassigned) [Compound 203] | 0.21
CC(n1c(=O)c(-c2ccc(NS(=O)(=O)Cc3ccccc3)c(F)c2F)cc2cnc(N[C@@H]3CNC[C@@H](F)C3)nc21)C(F)(F)F (stereo partly drawn) [Compound 42, N-(2,3-difluoro-4-(2-(((3S,5S)-5-fluoropiperidin-3-yl)amino)-7-oxo-8-(1,1,1-trifluoropropan-2-yl)-7,8-dihydropyrido[2,3-d]pyrimidin-6-yl)phenyl)-1-phenylmethanesulfonamide trifluoroacetate salt] | 3.6
CC(C)n1c(=O)c(-c2cc(F)c(NCC(O)C(F)(F)F)c(F)c2F)cc2cnc(N[C@H]3CC[C@H](N(C)C)CC3)nc21 (stereo partly drawn) [Compound 99A, 2-(((1r,4r)-4-(Dimethylamino)cyclohexyl)amino)-8-isopropyl-6-(2,3,5-trifluoro-4-((3,3,3-trifluoro-2-hydroxypropyl)amino)phenyl)pyrido[2,3-d]pyrimidin-7(8H)-one] | 68
CC(C)n1c(=O)c(-c2cc(F)c(NS(=O)(=O)Cc3ccc(F)cc3)c(F)c2F)nc2cnc(N[C@H]3CC[C@H](N(C)C)CC3)nc21 [Compound 175, N-(4-(2-(((1r,4r)-4-(Dimethylamino)cyclohexyl)amino)-8-isopropyl-7-oxo-7,8-dihydropteridin-6-yl)-2,3,6-trifluorophenyl)-1-(4-fluorophenyl)methanesulfonamide hydrochloride] | 0.14
CC(C)n1c(=O)c(-c2ccc(NS(=O)(=O)CC3(C(F)(F)F)CCC3)c(F)c2)nc2cnc(N[C@H]3CC[C@H](N(C)C)CC3)nc21 [Example 261, N-[4-[2-[[4-(Dimethylamino)cyclohexyl]amino]-8-isopropyl-7-oxo-pteridin-6-yl]-2-fluoro-phenyl]-1-[1-(trifluoromethyl)cyclobutyl]methanesulfonamide] | 0.2
CC(C)n1c(=O)c(-c2ccc(NS(=O)(=O)Cc3ccc(F)cc3)c(F)c2)nc2cnc(N[C@H]3CC[C@H](N(C)C)[C@@H](F)C3)nc21 (stereo in doubt) [Compound 181B, N-(4-(2-((4-(Dimethylamino)-3-fluorocyclohexyl)amino)-8-isopropyl-7-oxo-7,8-dihydropteridin-6-yl)-2-fluorophenyl)-1-(4-fluorophenyl)methanesulfonamide] | 0.15
CC(C)n1c(=O)c(-c2ccc(NS(=O)(=O)CCC(F)(F)F)c(F)c2)cc2cnc(NC3CCC(N(C)C)C(O)C3)nc21 (stereo not drawn) [Compound 226, N-(4-(2-((4-(dimethylamino)-3-hydroxycyclohexyl)amino)-8-isopropyl-7-oxo-7,8-dihydropyrido[2,3-d]pyrimidin-6-yl)-2-fluorophenyl)-3,3,3-trifluoropropane-1-sulfonamide] | 0.3
CC(C)n1c(=O)c(-c2cc(F)c(NC(=O)[C@H]3C[C@H]3F)c(F)c2F)cc2cnc(N[C@H]3CC[C@H](N(C)C)CC3)nc21 [Compound 63, (1R,2R)—N-(4-(2-(((1r,4r)-4-(Dimethylamino)cyclohexyl)amino)-8-isopropyl-7-oxo-7,8-dihydropyrido[2,3-d]pyrimidin-6-yl)-2,3,6-trifluorophenyl)-2-fluorocyclopropane-1-carboxamide hydrochloride] | 4.1
N-(2,3,6-trifluoro-4-(8-isopropyl-2-((4-((2-methoxyethyl)(methyl)amino)cyclohexyl)amino)-7-oxo-7,8-dihydropyrido[2,3-d]pyrimidin-6-yl)phenyl)propane-1-sulfonamide [Compound 101B] | 120
CC(C)n1c(=O)c(-c2ccc(NS(=O)(=O)CCC(F)(F)F)c(F)c2)cc2cnc(N[C@H]3CC[C@H](N(C)C)[C@@H](O)C3)nc21 [Compound 228, N-(4-(2-(((1S,3S,4S)-4-(dimethylamino)-3-hydroxycyclohexyl)amino)-8-isopropyl-7-oxo-7,8-dihydropyrido[2,3-d]pyrimidin-6-yl)-2-fluorophenyl)-3,3,3-trifluoropropane-1-sulfonamide] | 0.2
CCC(F)(F)CS(=O)(=O)Nc1ccc(-c2nc3cnc(N[C@@H]4CNC[C@@H](F)C4)nc3n(C(C)C)c2=O)cc1F [Compound 83, 2,2-Difluoro-N-[2-fluoro-4-[2-[[(3S,5S)-5-fluoro-3-piperidyl]amino]-8-isopropyl-7-oxo-pteridin-6-yl]phenyl]butane-1-sulfonamide] | 0.4
O=c1c(-c2cc(F)c(NS(=O)(=O)Cc3ccccc3)c(F)c2F)cc2cnc(N[C@@H]3CNC[C@@H](F)C3)nc2n1C1CC(F)(F)C1 [Compound 55, N-(4-(8-(3,3-Difluorocyclobutyl)-2-(((3S,5S)-5-fluoropiperidin-3-yl)amino)-7-oxo-7,8-dihydropyrido[2,3-d]pyrimidin-6-yl)-2,3,6-trifluorophenyl)-1-phenylmethanesulfonamide hydrochloride] | 0.42
CC(C)n1c(=O)c(-c2ccc(NS(=O)(=O)CC3CCCCC3)nc2)cc2cnc(N[C@H]3CC[C@H](N(C)C)CC3)nc21 [Compound 152, 1-Cyclohexyl-N-(5-(2-(((1r,4r)-4-(dimethylamino)cyclohexyl)amino)-8-isopropyl-7-oxo-7,8-dihydropyrido[2,3-d]pyrimidin-6-yl)pyridin-2-yl)methanesulfonamide] | 0.18
CC(C)n1c(=O)c(-c2ccc(F)c(NS(=O)(=O)Cc3ccccc3)c2F)cc2cnc(N[C@H]3CCCNC3)nc21 [Compound 19, (S)—N-(2,6-Difluoro-3-(8-isopropyl-7-oxo-2-(piperidin-3-ylamino)-7,8-dihydropyrido[2,3-d]pyrimidin-6-yl)phenyl)-1-phenylmethanesulfonamide] | 2.2
CC(C)n1c(=O)c(-c2ccc(NS(=O)(=O)Cc3ccccc3F)c(F)c2)cc2cnc(N[C@@H]3CNC[C@@H](F)C3)nc21 [Compound 90, N-(2-Fluoro-4-(2-(((3S,5S)-5-fluoropiperidin-3-yl)amino)-8-isopropyl-7-oxo-7,8-dihydropyrido[2,3-d]pyrimidin-6-yl)phenyl)-1-(2-fluorophenyl)methanesulfonamide] | 0.21
Cc1cc(-c2nc3cnc(N[C@@H]4CNC[C@@H](F)C4)nc3n(C(C)C)c2=O)cc(F)c1NS(=O)(=O)Cc1ccccc1 [Compound 72, N-[2-Fluoro-4-[2-[[(3S,5S)-5-fluoro-3-piperidyl]amino]-8-isopropyl-7-oxo-pteridin-6-yl]-6-methyl-phenyl]-1-phenyl-methanesulfonamide] | 0.5
CC(C)n1c(=O)c(-c2ccc(NS(=O)(=O)N(C)C)c(F)c2)nc2cnc(N[C@@H]3CNC[C@@H](F)C3)nc21 [Compound 164, 6-(4-(Dimethylsulfamoylamino)-3-fluoro-phenyl)-2-(((3S,5S)-5-fluoro-3-piperidyl)amino)-8-isopropyl-7-oxo-pteridine] | 0.43
CCn1c(=O)c(-c2cc(F)c(NS(=O)(=O)Cc3c(F)cccc3F)c(F)c2F)cc2cnc(N[C@@H]3CNC[C@@H](F)C3)nc21 [Compound 51, 1-(2,6-difluorophenyl)-N-(4-(8-ethyl-2-(((3S,5S)-5-fluoropiperidin-3-yl)amino)-7-oxo-7,8-dihydropyrido[2,3-d]pyrimidin-6-yl)-2,3,6-trifluorophenyl)methanesulfonamide] | 0.7
CC(C)n1c(=O)c(-c2ccc(NS(=O)(=O)CC3(C(F)F)CCCC3)c(F)c2)nc2cnc(N[C@H]3CC[C@H](N(C)C)CC3)nc21 [Example 266, 1-[1-(Difluoromethyl)cyclopentyl]-N-[4-[2-[[4-(dimethylamino)cyclohexyl]amino]-8-isopropyl-7-oxo-pteridin-6-yl]-2-fluoro-phenyl]methanesulfonamide] | 0.2
CCn1c(=O)c(-c2cc(F)c(NS(=O)(=O)Cc3cccc(C(F)(F)F)c3)c(F)c2F)cc2cnc(N[C@@H]3CNC[C@@H](F)C3)nc21 [Compound 39, N-(4-(8-Ethyl-2-(((3S,5S)-5-fluoropiperidin-3-yl)amino)-7-oxo-7,8-dihydropyrido[2,3-d]pyrimidin-6-yl)-2,3,6-trifluorophenyl)-1-(3-(trifluoromethyl)phenyl)methanesulfonamide] | 0.4
CC(C)n1c(=O)c(-c2cc(F)c(NC(=O)C3CC3F)c(F)c2F)cc2cnc(N[C@H]3CC[C@H](N(C)C)CC3)nc21 (single isomer, unassigned) [Compound 98A, N-(4-(2-(((1r,4r)-4-(Dimethylamino)cyclohexyl)amino)-8-isopropyl-7-oxo-7,8-dihydropyrido[2,3-d]pyrimidin-6-yl)-2,3,6-trifluorophenyl)-2-fluorocyclopropane-1-carboxamide] | 2.8
